Results from PMC4764322, “An Unusual Member of the Papain Superfamily: Mapping the Catalytic Cleft of the Marasmius oreades agglutinin (MOA) with a Caspase Inhibitor” (PLoS ONE, 2016).
Residues, ends and D or L forms follow the SMILES beside them. *: point of attachment. Cbz = O=C(OCc1ccccc1)*; CH2F = FC*

What was measured:
[1] = target: T1, Marasmius oreades agglutinin (MOA) (Marasmius oreades, UniProt Q8X123); test: X-ray crystal structure (co-crystal, […]-1.[…] Å); assay type: binding; settings: calcium, imidazole pH 8.0
T1 construct: wild-type full-length 293 aa cDNA (MOApT7-LO), E. coli BL21(DE3), no tag mentioned; homodimer; model residues 2-293, Met1 probably cleaved

[2] = target: the molecule itself; test: crystal structure; MOA 5 mg/ml mixed with Galα1,3(Fucα1,2)Gal trisaccharide (1:20) and Z-VAD-fmk (1:3, 1:20 or 1:30 MOA:inhibitor); 0.1 M imidazole pH 8.0, 10-16% PEG 8000, 0.2 M calcium acetate, with or without 5% DMSO; space group P6(3)22; three data sets (ZVAD-direct, ZVAD-inverted, ZVAD-dual)

## C[C@@H]1O[C@@H](O[C@H]2C(O)O[C@H](CO)[C@H](O)[C@@H]2O[C@H]2O[C@H](CO)[C@H](O)[C@H](O)[C@H]2O)[C@@H](O)[C@H](O)[C@@H]1O (stereo partly drawn) [Galα1,3(Fucα1,2)Gal trisaccharide]
[1]; three lectin-domain sugar sites (α, β, γ), 1:20 MOA:sugar
  X-ray crystal structure (co-crystal, 1.6-1.7 Å): The three sugar binding sites of MOA show a different preference for the anomeric form

## CC(C)[C@H](NC(=O)OCc1ccccc1)C(=O)N[C@@H](C)C(=O)N[C@@H](CC(=O)O)C(=O)CF [Z-VAD-fmk] (Cbz-Val-Ala-Asp-CH2F)
[1]; covalent, thioether with catalytic Cys215, direct and inverted orientations
  X-ray crystal structure (co-crystal, 1.6-1.7 Å): the inhibitor molecule binds to the active site of MOA forming a thioether

B1: Marasmius oreades agglutinin (MOA), wild type (enzyme)
chain: MSLRRGIYHIENAGVPSAIDLKDGSSSDGTPIVGWQFTPDTINWHQLWLAEPIPNVADTFTLCNLFSGTYMDLYNGSSEAGTAVNGWQGTAFTTNPHQLWTIKKSSDGTSYKIQNYGSKTFVDLVNGDSSDGAKIAGWTGTWDEGNPHQKWYFNRMSVSSAEAQAAIARNPHIHGTYRGYILDGEYLVLPNATFTQIWKDSGLPGSKWREQIYDCDDFAIAMKAAVGKWGADSWKANGFAIFCGVMLGVNKAGDAAHAYNFTLTKDHADIVFFEPQNGGYLNDIGYDSYMAFY
notes: Marasmius oreades agglutinin, wild-type cDNA in vector MOApT7-LO; 293 amino acids; Homodimer; one protomer in the asymmetric unit, the dimer arises by crystallographic symmetry; source: E. coli BL21 (DE3), purified (D-Gal-sepharose, cation exchange, size exclusion)
[2]
  binding result: binds
